This is an account of results in patent US20260306429A1, “COMPOSITION FOR REDUCING METHANE PRODUCTION AND IMPROVING NITROGEN UTILIZATION EFFICIENCY OF RUMINANT ANIMALS COMPRISING HALOACETAMIDE AS ACTIVE INGREDIENT” (CHUNGANG UNIVERSITY INDUSTRY ACADEMIC COOPERATION FOUNDATION, priority 2024, published 2026).

For data set [1] the following is noted: in words; cited from earlier work.
Another data set deals with Total protozoa. As to the kind of experiment: qPCR absolute quantification of protozoa after in vitro rumen incubation. Format: cell-based, rumen fluid of Hanwoo cows. To be noted: 0.2 mmol/L, 24 h. As for the experimental part: (§1) Rumen fluid was sampled from Hanwoo cows at the Nonghyup Research Farm in Anseong, Gyeonggi Province, and mixed with buffer at a ratio of 1:2 within 1 hour of sampling. Oat hay was used as the forage, and pelleted feed for the middle fattening period was used as the concentrate. After grinding, the forage and concentrate were mixed at a ratio of 1:1 after passing through a 1-mm screen. 50 ml of culture medium was dispensed into 0.5 g of dry matter, and the control group and the five experimental groups (acrylamide, chloroacetamide, glycolamide, iodoacetamide, and propionamide) were each incubated for 24 hours with five replicates. The control group was incubated in 50 mL of culture medium, whereas the experimental groups were incubated in 49.9 mL of culture medium plus 0.1 mL of deionized water. For the five experimental groups, the supplementation level of each amide was set to 0.2 mmol/L (final concentration), and the amounts added were 1.4216 mg/g for acrylamide, 1.8702 mg/g for 2-chloroacetamide, 1.4618 mg/g for propionamide, 1.5014 mg/g for glycolamide, and 3.6992 mg/g for iodoacetamide.
(§2) Gas pressure was measured at 0, 3, 6, 12, and 24 hours (gas collection intervals), and the gas released during each measurement was collected to determine the total gas production and methane production up to the final 24 hours. After completing the 24-hour incubation, pH, ammonia nitrogen (NH3—N), dry matter digestibility, neutral detergent fiber digestibility, volatile fatty acids (VFA), and the microbiome were analyzed.
(§3) Metagenomic DNA was extracted using the RBB+C method, followed by qPCR analysis and microbiome analysis. Microbial functions were predicted using PICRUSt2. Taxonomic drivers of differentially enriched MetaCyc pathways were identified using Fish Taco (Functional Shifts' Taxonomic Contributor).
(§4) Data conforming to normal distribution and homogeneity of variance were analyzed using the GLIMMIX procedure of SAS and Tukey's HSD test. […] Differences in the overall bacteriota and their functional profiles were analyzed using PERMANOVA. Differentially abundant microbial biomarkers were identified using multivariable association analysis with the MaAsLin2 R package, based on relatively abundant bacterial taxa and predicted microbial functions.
(§5) For the control group and the five experimental groups (acrylamide, chloroacetamide, glycolamide, iodoacetamide, and propionamide), the effects of the amide compounds on the absolute quantification of total bacteria, methanogens, protozoa, and specific cellulolytic bacterial species (Fibrobacter succinogenes, Ruminococcus flavefaciens, Ruminococcus albus, and Prevotella ruminicola) are presented in Table 3 below as quantitative real-time PCR data.

The next data set deals with Total bacteria. As to the kind of experiment: qPCR absolute quantification of total bacteria after in vitro rumen incubation. It is filed as cell-based, rumen fluid of Hanwoo cows. To be noted: 0.2 mmol/L, 24 h. As for the experimental part: as §1, §2, §3, §4, §5
A further data set relates to rumen fluid. The data set is described as follows: In vitro incubation of rumen fluid: digestibility, fermentation characteristics, gas and methane production, VFA. To be noted: 0.2 mmol/L; for A:P ratio (acetate:propionate ratio) / DMD (dry matter digestibility) / NDFD (neutral detergent fiber digestibility) / NH3—N (ammonia nitrogen) / pH / Acetate / Butyrate / Isobutyrate / Isovalerate / Propionate / Valerate / Total VFA (total volatile fatty acids) / methane-reducing effects: 24 h; for methane-reducing effects: in words, from Table 1; for CH4 (methane production per gram of degraded dry matter) / CH4 (methane production) / TGP (total gas production): up to 24 h. It is filed as cell-based, Hanwoo cows. As for the experimental part:
as §1, §2, §4

A further data set deals with Prevotella ruminicola. The data set is described as follows: qPCR absolute quantification of Prevotella ruminicola after in vitro rumen incubation. To be noted: 0.2 mmol/L, 24 h. It is filed as cell-based. As for the experimental part:
as §1, §2, §3, §4, §5

In data set [2] the test system is Ruminococcus flavefaciens. As to the kind of experiment: qPCR absolute quantification of Ruminococcus flavefaciens after in vitro rumen incubation. It is filed as cell-based. To be noted: 0.2 mmol/L, 24 h. As for the experimental part: as §1, §2, §3, §4, §5
The test system of another data set is Ruminococcus albus. The data set is described as follows: qPCR absolute quantification of Ruminococcus albus after in vitro rumen incubation. It is filed as cell-based. To be noted: 0.2 mmol/L, 24 h. As for the experimental part: as §1, §2, §3, §4, §5
A further data set deals with rumen microbiota. As to the kind of experiment: Differentially abundant genera and species in response to haloacetamide treatment; taxonomic drivers. To be noted: in words. It is filed as cell-based, rumen fluid of Hanwoo cows. As for the experimental part: Rumen fluid was sampled from Hanwoo cows at the Nonghyup Research Farm in Anseong, Gyeonggi Province, and mixed with buffer at a ratio of 1:2 within 1 hour of sampling. Oat hay was used as the forage, and pelleted feed for the middle fattening period was used as the concentrate. After grinding, the forage and concentrate were mixed at a ratio of 1:1 after passing through a 1-mm screen. 50 ml of culture medium was dispensed into 0.5 g of dry matter, and the control group and the five experimental groups (acrylamide, chloroacetamide, glycolamide, iodoacetamide, and propionamide) were each incubated for 24 hours with five replicates. […]
Gas pressure was measured at 0, 3, 6, 12, and 24 hours (gas collection intervals), and the gas released during each measurement was collected to determine the total gas production and methane production up to the final 24 hours. After completing the 24-hour incubation, pH, ammonia nitrogen (NH3—N), dry matter digestibility, neutral detergent fiber digestibility, volatile fatty acids (VFA), and the microbiome were analyzed. […]
Data conforming to normal distribution and homogeneity of variance were analyzed using the GLIMMIX procedure of SAS and Tukey's HSD test. […] Differences in the overall bacteriota and their functional profiles were analyzed using PERMANOVA. […]

The subject of the next data set is Total methanogen. As to the kind of experiment: qPCR absolute quantification of methanogens after in vitro rumen incubation. It is filed as cell-based, rumen fluid of Hanwoo cows. Particulars: 0.2 mmol/L, 24 h. As for the experimental part:
as §1, §2, §3, §4, §5

The subject of a further data set is rumen microbiome. As to the kind of experiment: Alpha-diversity measurements of the rumen microbiome. Format: cell-based, rumen fluid of Hanwoo cows. Particulars: 0.2 mmol/L, 24 h. As for the experimental part: as §1, §2, §3, §4
The alpha-diversity measurements for the control group and the five experimental groups (acrylamide, chloroacetamide, glycolamide, iodoacetamide, and propionamide) are presented in Table 4 below.

The test system of the next data set is Fibrobacter succinogenes. The data set is described as follows: qPCR absolute quantification of Fibrobacter succinogenes after in vitro rumen incubation. To be noted: 0.2 mmol/L, 24 h. It is filed as cell-based. As for the experimental part:
as §1, §2, §3, §4, §5

Regarding `O=[N+]([O-])OCCCO` [3-NOP, 3-nitrooxypropanol], the toxicity / safety entry in data set [1] was “issues related to residues in the animal body and safety”.
In the case of `NC(=O)CCl` [CLA, 2-chloroacetamide], the “Total protozoa (absolute quantification, qPCR)” value in the data set on Total protozoa is reported as 9.77. For the same molecule, in the data set on Total bacteria, the “Total bacteria (absolute quantification, qPCR)” value is given as 10.28^B. In the data set on rumen fluid, the “A:P ratio (acetate:propionate ratio)” value is 2.34^B, the “DMD (dry matter digestibility)” value is on record as 77.82^AB %, the “NDFD (neutral detergent fiber digestibility)” value is 43.61^B % and the “NH3—N (ammonia nitrogen)” value is 13.90^B mg/dL. In the data set on rumen fluid, the pH is 6.19, the methane-reducing effects entry is on record as “excellent methane-reducing effects”, the “CH4 (methane production per gram of degraded dry matter)” value is reported as 10.71^C mL/g dDM and the “CH4 (methane production)” value is recorded as 4.17^C mL. Also, in the data set with rumen fluid, the “TGP (total gas production)” value is reported as 134.49^B mL. In addition, in the data set with rumen fluid (VFA composition), the Acetate is 55.96^B %, the Butyrate was 16.30^A %, the Isobutyrate was determined as 0.80% and the Isovalerate was 1.09^BC %. Further, in the data set with rumen fluid (VFA composition), the Propionate is given as 23.89^B % and the Valerate was 1.95^AB %. Also, in the data set on rumen fluid (concentration), the Acetate is recorded as 35.41^BC mM, the Butyrate is given as 10.25^A mM, the Isobutyrate is listed as 0.50^BC mM and the Isovalerate is 0.68^B mM. In the data set on rumen fluid (concentration), the Propionate is 15.07^AB mM, the “Total VFA (total volatile fatty acids)” value is 63.14^AB mM and the Valerate is recorded as 1.22 mM. Moreover, the “Prevotella ruminicola (absolute quantification, qPCR)” value in the data set with Prevotella ruminicola was 9.58^B. In addition, in data set [2], the “Ruminococcus flavefaciens (absolute quantification, qPCR)” value was 8.27^B. The “Ruminococcus albus (absolute quantification, qPCR)” value in the data set with Ruminococcus albus is on record as 7.96^A. For the same molecule, the differentially abundant bacteria entry in the data set on rumen microbiota is “increases bacteria belonging to the genera Fibrobacter, Anaeroplasma, Treponema, and Succinivibrio, and the species Ruminococcus albus”. Besides, the “Total methanogen (absolute quantification, qPCR)” value in the data set with Total methanogen was 8.05^AB. For the same molecule, in the data set with rumen microbiome, the Chao1 is reported as 382.3^AB, the Evenness was 0.8847^AB, the Observed features is listed as 380.8^AB and the Shannon was 7.5719^AB. Besides, in the data set on rumen microbiome, the Simpson is on record as 0.9903^AB. Also, the “Fibrobacter succinogenes (absolute quantification, qPCR)” value in the data set on Fibrobacter succinogenes is listed as 9.54^B.
For `NC(=O)CI` [IA, iodoacetamide], the “Total protozoa (absolute quantification, qPCR)” value in the data set with Total protozoa was found to be 9.68. Also, the “Total bacteria (absolute quantification, qPCR)” value in the data set on Total bacteria is 10.38^A. In the data set on rumen fluid, the “A:P ratio (acetate:propionate ratio)” value is reported as 1.89^C, the “DMD (dry matter digestibility)” value is recorded as 76.18^B %, the “NDFD (neutral detergent fiber digestibility)” value is listed as 47.83^A % and the “NH3—N (ammonia nitrogen)” value was 13.16^B mg/dL. Besides, in the data set with rumen fluid, the pH was 6.19, the methane-reducing effects entry is reported as “excellent methane-reducing effects”, the “CH4 (methane production per gram of degraded dry matter)” value is on record as 0.60^D mL/g dDM and the “CH4 (methane production)” value is reported as 0.23^D mL. Further, the “TGP (total gas production)” value in the data set with rumen fluid is 129.37^B mL. For the same molecule, in the data set with rumen fluid (VFA composition), the Acetate was 52.09^C %, the Butyrate is 16.51^A %, the Isobutyrate was 0.76% and the Isovalerate is on record as 1.02^C %. Also, in the data set on rumen fluid (VFA composition), the Propionate is 27.56^A % and the Valerate is 2.06^A %. For the same molecule, in the data set on rumen fluid (concentration), the Acetate was 29.92^C mM, the Butyrate is listed as 9.45^AB mM, the Isobutyrate is 0.43^C mM and the Isovalerate is 0.58^B mM. Further, in the data set on rumen fluid (concentration), the Propionate is 15.80^A mM, the “Total VFA (total volatile fatty acids)” value is listed as 59.25^B mM and the Valerate worked out at 1.18 mM. Also, the “Prevotella ruminicola (absolute quantification, qPCR)” value in the data set on Prevotella ruminicola was 9.72^A. Further, the “Ruminococcus flavefaciens (absolute quantification, qPCR)” value in data set [2] is 8.51^A. In the data set on Ruminococcus albus, the “Ruminococcus albus (absolute quantification, qPCR)” value is on record as 7.83^AB. For the same molecule, in the data set with rumen microbiota, the differentially abundant bacteria entry is “increases bacteria belonging to the genera Fibrobacter, Pseudobutyrivibrio, and Treponema, and the species Ruminococcus flavefaciens”. Moreover, the “Total methanogen (absolute quantification, qPCR)” value with Total methanogen is 7.74^B. Moreover, in the data set with rumen microbiome, the Chao1 is reported as 525.3^A, the Evenness was 0.8895^AB, the Observed features was 520.6^A and the Shannon is listed as 8.0215^A. Besides, the Simpson in the data set with rumen microbiome was 0.9925^A. For the same molecule, the “Fibrobacter succinogenes (absolute quantification, qPCR)” value in the data set with Fibrobacter succinogenes was 9.79^A.
Take `BrC(Br)Br` [bromoform]: the toxicity / safety result in [1] was “carcinogenic substance”.
